Each structure is given as a SMILES string.

As usually defined, the IC50 is the concentration at which inhibition is half-maximal. Read a low IC50 as greater potency.

What all share (assay type): functional, cell-based
Test [1] concerns HeLa. The test is described as follows: Cytotoxicity against human HeLa cells after 48 hrs by MTT assay. A general note: Tetrazolium assays rely on reduction of a dye to a coloured formazan, in cell work by metabolically active cells.
The subject of test [2] is HepG2. The test is described as follows: Cytotoxicity against human HepG2 cells after 48 hrs by MTT assay. To be noted: HepG2, 48 h.
Test [3] has as its system SK-OV-3. The test is described as follows: Cytotoxicity against human SKOV3 cells after 48 hrs by MTT assay. To be noted: SK-OV-3, 48 h.
In test [4] the test system is A549. Put plainly: Cytotoxicity against human A549 cells after 48 hrs by MTT assay. To be noted: A549, 48 h.
Test [5] concerns A-431. Put plainly: Cytotoxicity against human A431 cells after 48 hrs by MTT assay. The following applies: A-431, 48 h.
For test [6], the system named is U-251. Put plainly: Cytotoxicity against human U251 cells after 48 hrs by MTT assay. The following applies: U-251, 48 h.
For test [7], the system named is MCF7. The test is described as follows: Cytotoxicity against human MCF7 cells after 48 hrs by MTT assay. To be noted: MCF7, 48 h.
For test [8], the system named is HEp-2. The test is described as follows: Cytotoxicity against human Hep2 cells after 48 hrs by MTT assay. The following applies: HEp-2, 48 h.

Regarding `COc1cc(/C=C/C(=O)/C=C(O)/C=C/c2ccc(I)c(OC)c2)ccc1I`, the 50% inhibitory concentration (IC50) in test [1], in test [2], in test [3], in test [4], in test [5] and in test [6] was greater than 100 µM each time. In addition, the half-maximal inhibitory concentration (IC50) in test [7] and in test [8] was greater than 100 µM each time.

As to `COc1cc(/C=C/C(=O)/C=C(O)/C=C/c2ccc(C(N)=O)c(OC)c2)ccc1C(N)=O`, the 50% inhibitory concentration (IC50) in test [1] is 23.8 µM; in test [2], 43.6 µM; in test [3], 38.3 µM; in test [4] it was greater than 100 µM; in test [5] it was 9.4 µM; in test [6], 7.7 µM. Further, the half-maximal inhibitory concentration (IC50) in test [7] was 49.2 µM; in test [8], greater than 100 µM.

Take `COc1cc(/C=C/C(=O)/C=C(O)/C=C/c2ccc(-n3cccn3)c(OC)c2)ccc1-n1cccn1`: the half-inhibitory concentration (IC50) in test [1], in test [2], in test [3], in test [4], in test [5] and in test [7] was greater than 100 µM throughout. In test [8], this compound returned an IC50 greater than 100 µM.

Consider `CNc1ccc(/C=C/C(=O)/C=C(O)/C=C/c2ccc(NC)c(OC)c2)cc1OC`, for which the half-inhibitory concentration (IC50) in test [1], in test [2], in test [3], in test [4], in test [5] and in test [6] was greater than 100 µM each time. In addition, the 50% inhibitory concentration (IC50) in test [7] and in test [8] was greater than 100 µM each time.

In the case of `COc1cc(/C=C/C(=O)/C=C(O)/C=C/c2ccc(NC(C)=O)c(OC)c2)ccc1NC(C)=O`, the IC50 is 37.1 µM in test [1]; 71.6 µM in test [2]; 55.5 µM in test [3]; greater than 100 µM in test [4]; 7.2 µM in test [5]; 7.1 µM in test [6]. The IC50 in test [7] and in test [8] was greater than 100 µM throughout.

For `COc1cc(/C=C/C(=O)CC(=O)/C=C/c2ccc(O)c(OC)c2)ccc1O` [CURCUMIN], the IC50 in test [1] came out at 27.4 µM; in test [2] it was 31.6 µM; in test [3], 37.7 µM; in test [4] it was 42.6 µM; in test [5], 13.8 µM; in test [6], 13.8 µM. In test [8], this compound came in with an IC50 of 56.9 µM.

With `COc1cc(/C=C/C(=O)/C=C(O)/C=C/c2ccc(-n3cnc4ccccc43)c(OC)c2)ccc1-n1cnc2ccccc21`, the IC50 in test [1], in test [2], in test [3], in test [4], in test [5] and in test [7] was greater than 100 µM throughout. In test [8], this compound gave a concentration for half-maximal inhibition (IC50) greater than 100 µM.

Turning to `COc1cc(/C=C/C(=O)/C=C(O)/C=C/c2ccc(N)c(OC)c2)ccc1N`, the IC50 was greater than 100 µM in test [1]; greater than 100 µM in test [2]; greater than 100 µM in test [3]; greater than 100 µM in test [4]; 15.8 µM in test [5]; 24.5 µM in test [6]. For the same compound, the half-maximal inhibitory concentration (IC50) in test [7] and in test [8] was greater than 100 µM throughout.

For `COc1cc(/C=C/C(=O)/C=C(O)/C=C/c2ccc(Br)c(OC)c2)ccc1Br`, the IC50 was greater than 100 µM in test [1]; greater than 100 µM in test [2]; greater than 100 µM in test [3]; greater than 100 µM in test [4]; 55.9 µM in test [5]; 84.8 µM in test [6]. Besides, the concentration for half-maximal inhibition (IC50) in test [7] and in test [8] was greater than 100 µM in each case.

For the compound `COc1cc(/C=C/C(=O)/C=C(O)/C=C/c2ccc(-n3ccc4ccccc43)c(OC)c2)ccc1-n1ccc2ccccc21`, the IC50 in test [1], in test [2], in test [3], in test [4], in test [5] and in test [7] was greater than 100 µM each time. The 50% inhibitory concentration (IC50) in test [8] was greater than 100 µM.

Turning to `COc1cc(/C=C/C(=O)/C=C(O)/C=C/c2ccc(-n3ccnc3)c(OC)c2)ccc1-n1ccnc1`, the IC50 in test [1] is 45.4 µM; in test [2], 82.5 µM; in test [3], 66.9 µM; in test [4] it was greater than 100 µM; in test [5], 16.8 µM; in test [6], 22 µM. The concentration for half-maximal inhibition (IC50) in test [7] and in test [8] was greater than 100 µM throughout.

Source of the values: ChEMBL document CHEMBL1667783 (Bioorg Med Chem Lett, 2011).
